# Measurements taken from the supplement of paper PMC10307832.
# What was measured:
# Test in all cases: relative viability (nuclei count vs DMSO), 5 days (fraction); higher = more cells survive
# [1] = compound: Cc1ccc(C(=O)Nc2cccc(C(F)(F)F)c2)cc1Nc1cncc(C(N)=O)c1 [ALW-II-49-7] + COc1cccc2cc(-c3nc([C@H]4CC[C@H](C(=O)O)CC4)n4ncnc(N)c34)[nH]c12 [OSI-027] (partner 0.5 µM)
# Summary of the method: (§1)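 Lung cancer cell lines in 1536-well plates got either a single drug or a fixed anchor-drug dose together with five library-drug doses (not always all listed) in √10 steps, by pin tool, on the day after seeding. Nuclei were counted after 5 days, and relative viability is the treated-to-vehicle ratio of nuclei counts. Values are medians of duplicate plates.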
# [2] = compound: Cc1ccc(C(=O)Nc2cccc(C(F)(F)F)c2)cc1Nc1cncc(C(N)=O)c1 [ALW-II-49-7] + CS(=O)(=O)N1CCN(Cc2cc3nc(-c4cccc5[nH]ncc45)nc(N4CCOCC4)c3s2)CC1 [Pictilisib] (partner 1 µM)
# Summary of the method: as §1
# [3] = compound: Cc1ccc(C(=O)Nc2cccc(C(F)(F)F)c2)cc1Nc1cncc(C(N)=O)c1 [ALW-II-49-7] + CC1(C)CCC(c2ccc(Cl)cc2)=C(CN2CCN(c3ccc(C(=O)NS(=O)(=O)c4ccc(N[C@H](CCN5CCOCC5)CSc5ccccc5)c(S(=O)(=O)C(F)(F)F)c4)cc3)CC2)C1 [Navitoclax] (partner 0.5 µM)
# Summary of the method: as §1
Cell Line,relative viability ([1]; first compound 0.08 µM),relative viability ([1]; first compound 0.253 µM),relative viability ([1]; first compound 0.8 µM),relative viability ([1]; first compound 2.53 µM),relative viability ([1]; first compound 8 µM),relative viability ([2]; first compound 0.08 µM),relative viability ([2]; first compound 0.253 µM),relative viability ([2]; first compound 0.8 µM),relative viability ([2]; first compound 2.53 µM),relative viability ([2]; first compound 8 µM),relative viability ([3]; first compound 0.08 µM),relative viability ([3]; first compound 0.253 µM),relative viability ([3]; first compound 0.8 µM),relative viability ([3]; first compound 2.53 µM),relative viability ([3]; first compound 8 µM)
H3255,0.556,0.58,0.559,0.483,0.388,0.505,0.43,0.48,0.335,0.418,0.581,0.541,0.375,0.313,0.538
HARA,0.547,0.441,0.298,0.387,0.442,0.416,0.386,0.431,0.483,0.497,1.22,1.07,1.13,1.15,1.22
HCC-15,0.647,0.75,0.619,0.663,0.536,0.849,0.791,0.705,0.805,0.741,0.768,0.772,0.695,0.824,0.729
HCC-44,–,0.743,0.325,0.533,0.414,0.513,0.693,0.638,0.535,0.646,1.12,0.958,0.988,0.891,1.06
HCC-78,0.34,0.394,–,0.36,0.395,0.192,0.188,0.203,0.268,0.192,1.01,0.682,0.787,0.744,0.641
HCC-366,0.977,1.17,0.731,0.985,0.627,0.13,0.142,0.148,0.0944,0.217,1.04,1.29,1.08,1.11,1.11
HCC-827,0.737,0.696,0.714,0.621,0.64,0.988,1.03,0.887,0.815,1.03,0.981,1.05,1.08,1.01,0.987
HOP-62,0.768,0.96,0.875,0.721,0.608,0.68,0.97,0.857,0.621,0.491,1.03,0.866,1.02,0.485,0.67
LC-2-ad,0.733,0.843,0.783,0.73,0.771,0.427,1.04,0.31,0.542,0.555,0.445,0.463,0.37,0.341,0.42
LCLC-97TM1,0.514,0.46,0.466,0.527,0.379,0.213,0.119,0.269,0.159,0.195,0.628,0.334,0.57,0.131,0.431
LK-2,0.202,0.205,0.213,–,0.186,0.559,0.648,0.508,0.361,0.513,0.887,0.802,0.945,–,0.745
LOU-NH91,0.666,0.733,0.684,0.729,0.676,0.482,0.599,0.514,0.428,0.533,0.642,0.733,0.623,0.345,0.604
LU99A,0.293,0.288,0.282,0.282,0.294,0.323,0.325,0.297,0.325,0.293,0.899,0.838,0.926,0.895,0.779
LXF-289,0.697,0.901,0.846,0.81,0.735,0.711,0.778,0.8,0.773,0.746,0.945,0.932,0.99,1.05,0.99
NCI-H23,0.52,0.492,0.476,0.562,0.475,0.524,0.448,0.459,0.526,0.441,0.968,0.92,0.848,0.766,0.787
NCI-H322M,0.54,0.469,0.444,0.447,0.406,0.449,0.49,0.479,0.499,0.556,1.22,1.31,1.24,1.26,1.09
NCI-H441,0.657,0.57,0.867,0.48,0.466,0.439,0.382,0.49,0.458,0.378,0.591,0.61,0.673,0.572,0.745
NCI-H460,0.467,0.641,0.81,0.682,0.115,0.443,0.337,0.357,0.431,0.4,1.17,1.08,1.11,1.25,1.09
NCI-H520,0.258,0.249,0.25,0.242,0.262,0.234,0.302,–,0.264,0.259,1.04,1.23,–,1.03,1.01
NCI-H596,0.777,0.749,0.589,0.624,0.776,0.423,0.418,0.416,0.369,0.397,0.98,0.784,0.85,0.972,0.927
NCI-H647,0.665,0.736,0.495,0.434,0.619,0.489,0.507,–,0.469,0.499,1.03,1.3,–,0.479,0.716
NCI-H727,0.688,0.611,0.429,0.527,0.511,0.511,0.415,0.267,0.432,0.292,0.611,0.447,0.482,0.53,0.552
